Laboratory results as given in the supplement of paper PMC10307832.

How the values were obtained:
Assay in all cases: relative viability (nuclei count vs DMSO), 5 days (fraction); higher = more cells survive
[1] = compound: CC1CC(=O)N(C2=CN=C(N=C2N1C3CCCC3)NC4=C(C=C(C=C4)C(=O)NC5CCN(CC5)C)OC)C [NPK76-II-72-1] + Cc1nc(NC(=O)N2CCC[C@H]2C(N)=O)sc1-c1ccnc(C(C)(C)C(F)(F)F)c1 [Alpelisib] (partner 2 µM)
In short: (§1)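 Cells from lung cancer lines were seeded into 1536-well plates and, one day later, dosed by pin tool. Treatments were either a single drug or a fixed dose of an anchor drug with five library-drug doses (not always all listed) in √10 steps. After 5 days, nuclei were stained in a one-step fixation (final 0.05% Triton X-100, 1% formaldehyde, 1 ug/ml Hoechst) and counted on 4× images, and relative viability is the treated-to-vehicle nuclei ratio, as the median of duplicate plates.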

BI-2536 + Vorinostat = compound: CC[C@@H]1C(=O)N(C)c2cnc(Nc3ccc(C(=O)NC4CCN(C)CC4)cc3OC)nc2N1C1CCCC1 [BI-2536] + O=C(CCCCCCC(=O)Nc1ccccc1)NO [Vorinostat] (partner 1 µM)
In short: as §1

[2] = compound: CC1CC(=O)N(C2=CN=C(N=C2N1C3CCCC3)NC4=C(C=C(C=C4)C(=O)NC5CCN(CC5)C)OC)C [NPK76-II-72-1] + O=C(CCCCCCC(=O)Nc1ccccc1)NO [Vorinostat] (partner 1 µM)
In short: as §1

[3] = compound: CC1CC(=O)N(C2=CN=C(N=C2N1C3CCCC3)NC4=C(C=C(C=C4)C(=O)NC5CCN(CC5)C)OC)C [NPK76-II-72-1] + COc1cc2c(Oc3ccc(NC(=O)C4(C(=O)Nc5ccc(F)cc5)CC4)cc3F)ccnc2cc1OCCCN1CCOCC1 [Foretinib] (partner 0.25 µM)
In short: as §1

Cell Line: UMC-11
- relative viability ([1]; first compound 0.01 µM): 0.967
- relative viability ([1]; first compound 0.03162 µM): 0.994
- relative viability ([1]; first compound 0.1 µM): 1.02
- relative viability ([1]; first compound 0.3162 µM): 0.835
- relative viability ([1]; first compound 1 µM): 0.978
- relative viability (BI-2536 + Vorinostat; first compound 0.01 µM): 0.343
- relative viability (BI-2536 + Vorinostat; first compound 0.03162 µM): 0.315
- relative viability (BI-2536 + Vorinostat; first compound 0.1 µM): 0.187
- relative viability (BI-2536 + Vorinostat; first compound 0.3162 µM): 0.18
- relative viability (BI-2536 + Vorinostat; first compound 1 µM): 0.145
- relative viability ([2]; first compound 0.01 µM): 0.358
- relative viability ([2]; first compound 0.03162 µM): 0.365
- relative viability ([2]; first compound 0.1 µM): 0.334
- relative viability ([2]; first compound 0.3162 µM): 0.392
- relative viability ([2]; first compound 1 µM): 0.309
- relative viability ([3]; first compound 0.01 µM): 0.988
- relative viability ([3]; first compound 0.03162 µM): 1.06
- relative viability ([3]; first compound 0.1 µM): 1.06
- relative viability ([3]; first compound 1 µM): 0.95
